Literature values, collected in patent US20090317464A1, “METHODS AND COMPOSITIONS FOR PRODUCING ANTI-ANDROGENIC EFFECTS” (PANACEA BIOTEC LTD., priority 2006, published 2009).

steady state concentration (Css) versus dose (daily administration to patients, above 300 mg, studied at 450 and 600 mg dose): no further increase in Css is observed
half life (in vivo): approximately 5.8 days
time to peak plasma concentration (in vivo): about 31 hours
SMILES: CC(O)(CS(=O)(=O)c1ccc(F)cc1)C(=O)Nc1ccc(C#N)c(C(F)(F)F)c1 (stereo not drawn) [Bicalutamide, 4-cyano-3-trifluoromethyl-N-(3-p-fluorophenylsulphony 1-2-hydroxy-2-methylpropionyl) aniline]
